Assay results as given in US10258607B2, “Method of increasing intratumoral pHe and reducing acid-mediated invasion” (H. Lee Moffitt Cancer Center and Research Institute, Inc., priority 2009, dated 2019).
“Also recorded” adds a separate entry of the source. Each block holds one molecule with its values, some of them ahead of it.

Tests used:
[1] = high doses; cited from earlier work
[2] = system: luciferase-expressing PC3M prostate cancer cells; test: In vivo experimental lung metastasis model, IEPA in drinking water; set-up: species or system mice
Description: FIG. 10 illustrates (A) the chemical structure of IEPA and (B) an experimental timetable. For the experiment mice (n=10) were started on 200 mM IEPA, or tap water (n=10) at time 0. Four days later 5×10^6 PC3M cells were injected intravenously in to the mice. Images were acquired weekly, and animal were euthanized at week 6 post-injections
Mice were imaged in a ventral view weekly for 6 weeks using the in vivo Imaging System (IVIS, Xenogen).
A region of interest (ROI) was manually selected over the signal intensity. The area of the ROI was kept constant and the intensity was recorded as maximum [photons/sec].
In these experiments, 10 mice were provided with ad libidum 200 mM of 2-imidazole-1-yl-3-ethoxycarbonylpropionic acid (IEPA) in their drinking water and 10 mice were maintained on water.
Four days after initiation of therapy, all animals were injected with luciferase-expressing PC3M prostate cancer cells. […] NMR in biomedicine 2002; 15(2):114-9; van Sluis R, et al., In vivo imaging of extracellular pH using 1H MRSI. Magn Reson Med 1999; 41(4):743-50].

[3] = system: widely metastatic renal cancer; test: Case report: patient with metastatic renal cancer
[4] = system: spontaneous and experimental metastases; conditions: chronic consumption of sodium bicarbonate solution; cited from earlier work
[5] = 25-50 grams daily, greater than 1 year, patients with renal tubular acidosis and sickle cell anemia; cited from earlier work
[6] = cited from earlier work
[7] = self-administered 40 grams of NaHCO3 daily, scans Dec. 5, 2007 and Apr. 18, 2008

animal weight / weight gain and grooming behavior vs controls ([2]; 200 mM IEPA in drinking water): not different from controls
SMILES: CCOC(=O)CC(C(=O)O)n1ccnc1 (stereo not drawn) [IEPA, 2-imidazole-1-yl-3-ethoxycarbonylpropionic acid]
toxicity in vivo [1]: non-toxic at high doses | lung metastases compared to control group ([2]; 200 mM IEPA in drinking water from 4 days before i.v. injection of 5×10^6 PC3M cells, weekly imaging for 6 weeks, p<0.02): significantly fewer lung metastases; also recorded: significantly inhibits lung metastasis | mean in vivo photon count, whole animal and lungs, vs tap water group ([2]; 200 mM IEPA in drinking water, p<0.002 Wilcoxon two sample test): significantly different

SMILES: O=C([O-])O.[Na+] [NaHCO3, sodium bicarbonate]
tolerability ([3]; "very high" bicarbonate administration for nearly 1 year): without complication | duration of stable tumor ([3]; person, approximately 60 grams of bicarbonate in water daily with vitamins, supplements, no conventional therapy): 10 months | central necrosis of tumors on follow-up CT scan [3, 7]: no longer present | liver lesions on CT scans [3, 7]: some of the liver lesions have increased in size, some have decreased in size, and some have remained stable | spontaneous and experimental metastases [4]: inhibited | adverse effects on chronic administration [5]: without adverse affects

SMILES: CCN(CC)CCNC(=O)c1c(C)[nH]c(/C=C2\C(=O)Nc3ccc(F)cc32)c1C [Sutent]
tumor response ([3]; first line treatment of liver metastatic disease): the tumor progressed

SMILES: NCCCC[C@H](N)C(=O)O [free-base lysine, L-lysine]
pKa1 ([6]; L-lysine with three pKa's): 2.20 | pKa2 ([6]; L-lysine with three pKa's): 8.90 | pKa3 ([6]; L-lysine with three pKa's): 10.28

SMILES: C[N+](C)(C)CCN [cholamine chloride]
pKa [6]: 7.1
